According to article PMC7385619, “A triple action CDK4/6-PI3K-BET inhibitor with augmented cancer cell cytotoxicity” (Cell Discovery, 2020):
pIC50: −log10 of the molar value. Where “and” joins values, the source holds several entries; their conditions need not be identical. Equal values may be shown once.

Legend:
BRD2 (BD2) = target: T1, BRD2 (BD2) (Homo sapiens, UniProt P25440); assay: AlphaScreen bromodomain binding assay, BRD2 BD2; details: Fig. 1b; italicized values from the literature (italics not visible)
T1 construct: tagged bromodomains and acetylated histone peptides as; purchased Reaction Biology

CDK4 = CDK4 (Homo sapiens, UniProt P11802); assay: In vitro kinase assay, CDK4; format: biochemical; details: Fig. 1b; italicized values from the literature (italics not visible)
[1] = system: Hepatocellular carcinoma cells (Hep3B, HepG2, and Huh7); assay: Cell viability (cytotoxicity) assay, hepatocellular carcinoma cells; format: cell-based; details: Homo sapiens; 48 hours, CCK8 or Alamar Blue; curves of Fig. 1f-j; read-out: Half maximal inhibitory concentration (IC50) in cell line cytotoxicity assays, Hepatocellular Carcinoma
kinome (kinase panel) [2] = target: T2, kinome (kinase panel) (Homo sapiens, UniProt Q8N5S9); assay: KINOMEscan assay (Eurofins DiscoverX); format: binding; details: CAMKK1; 1000 nM; read-out: Percent Control
T2 construct: purchased Eurofins DiscoverX

kinome (kinase panel) [3] = target: T3, kinome (kinase panel) (Homo sapiens, UniProt P00519, H396P); assay: KINOMEscan assay (Eurofins DiscoverX); format: binding
T3 construct: purchased Eurofins DiscoverX

kinome (kinase panel) [4] = target: T4, kinome (kinase panel) (Homo sapiens, UniProt Q9NSY1); assay: KINOMEscan assay (Eurofins DiscoverX); format: binding; details: BIKE (Entrez BMP2K); 1000 nM; read-out: Percent Control
T4 construct: purchased Eurofins DiscoverX

kinome (kinase panel) [5] = target: T5, kinome (kinase panel) (Homo sapiens, UniProt O95747); assay: KINOMEscan assay (Eurofins DiscoverX); format: binding; details: OSR1 (Entrez OXSR1); 1000 nM; read-out: Percent Control
T5 construct: purchased Eurofins DiscoverX

kinome (kinase panel) [6] = target: T6, kinome (kinase panel) (Homo sapiens, UniProt P25098); assay: KINOMEscan assay (Eurofins DiscoverX); format: binding; details: GRK2 (Entrez ADRBK1); 1000 nM; read-out: Percent Control
T6 construct: purchased Eurofins DiscoverX

kinome (kinase panel) [7] = target: T7, kinome (kinase panel) (Homo sapiens, UniProt Q13705); assay: KINOMEscan assay (Eurofins DiscoverX); format: binding; details: ACVR2B; 1000 nM; read-out: Percent Control
T7 construct: purchased Eurofins DiscoverX

kinome (kinase panel) [8] = target: T8, kinome (kinase panel) (Homo sapiens, UniProt P11362); assay: KINOMEscan assay (Eurofins DiscoverX); format: binding; details: FGFR1; 1000 nM; read-out: Percent Control
T8 construct: purchased Eurofins DiscoverX

kinome (kinase panel) [9] = target: T9, kinome (kinase panel) (Homo sapiens, UniProt Q7L7X3); assay: KINOMEscan assay (Eurofins DiscoverX); format: binding; details: TAOK1; 1000 nM; read-out: Percent Control
T9 construct: purchased Eurofins DiscoverX

kinome (kinase panel) [10] = target: T10, kinome (kinase panel) (Homo sapiens, UniProt Q9NYY3); assay: KINOMEscan assay (Eurofins DiscoverX); format: binding; details: PLK2; 1000 nM; read-out: Percent Control
T10 construct: purchased Eurofins DiscoverX

kinome (kinase panel) [11] = target: T11, kinome (kinase panel) (Homo sapiens, UniProt Q92772); assay: KINOMEscan assay (Eurofins DiscoverX); format: binding; details: CDKL2; 1000 nM; read-out: Percent Control
T11 construct: purchased Eurofins DiscoverX

kinome (kinase panel) [12] = target: T12, kinome (kinase panel) (Homo sapiens, UniProt O15197); assay: KINOMEscan assay (Eurofins DiscoverX); format: binding; details: EPHB6; 1000 nM; read-out: Percent Control
T12 construct: purchased Eurofins DiscoverX

kinome (kinase panel) [13] = target: T13, kinome (kinase panel) (Homo sapiens, UniProt P10721, A829P); assay: KINOMEscan assay (Eurofins DiscoverX); format: binding; details: […]; 1000 nM; read-out: Percent Control
T13 construct: purchased Eurofins DiscoverX

kinome (kinase panel) [14] = target: T14, kinome (kinase panel) (Homo sapiens, UniProt P22694); assay: KINOMEscan assay (Eurofins DiscoverX); format: binding; details: PKAC-beta (Entrez PRKACB); 1000 nM; read-out: Percent Control
T14 construct: purchased Eurofins DiscoverX

kinome (kinase panel) [15] = target: T15, kinome (kinase panel) (Homo sapiens, UniProt P42685); assay: KINOMEscan assay (Eurofins DiscoverX); format: binding; details: FRK; 1000 nM; read-out: Percent Control
T15 construct: purchased Eurofins DiscoverX

kinome (kinase panel) [16] = target: T16, kinome (kinase panel) (Homo sapiens, UniProt Q9UM73); assay: KINOMEscan assay (Eurofins DiscoverX); format: binding; details: ALK; 1000 nM; read-out: Percent Control
T16 construct: purchased Eurofins DiscoverX

kinome (kinase panel) [17] = target: T17, kinome (kinase panel) (Homo sapiens, UniProt Q9UM73, L1196M); assay: KINOMEscan assay (Eurofins DiscoverX); format: binding; details: […]; 1000 nM; read-out: Percent Control
T17 construct: purchased Eurofins DiscoverX

kinome (kinase panel) [18] = target: T18, kinome (kinase panel) (Homo sapiens, UniProt Q15831); assay: KINOMEscan assay (Eurofins DiscoverX); format: binding; details: LKB1 (Entrez STK11); 1000 nM; read-out: Percent Control
T18 construct: purchased Eurofins DiscoverX

kinome (kinase panel) [19] = target: T19, kinome (kinase panel) (Homo sapiens, UniProt Q86Z02); assay: KINOMEscan assay (Eurofins DiscoverX); format: binding; details: HIPK1; 1000 nM; read-out: Percent Control
T19 construct: purchased Eurofins DiscoverX

kinome (kinase panel) [20] = target: T20, kinome (kinase panel) (Homo sapiens, UniProt Q2M2I8); assay: KINOMEscan assay (Eurofins DiscoverX); format: binding; details: AAK1; 1000 nM; read-out: Percent Control
T20 construct: purchased Eurofins DiscoverX

kinome (kinase panel) [21] = target: T21, kinome (kinase panel) (Homo sapiens, UniProt O43318); assay: KINOMEscan assay (Eurofins DiscoverX); format: binding; details: TAK1 (MAP3K7); 1000 nM; read-out: Percent Control
T21 construct: purchased Eurofins DiscoverX

kinome (kinase panel) [22] = target: T22, kinome (kinase panel) (Homo sapiens, UniProt P00519, F317L); assay: KINOMEscan assay (Eurofins DiscoverX); format: binding
T22 construct: purchased Eurofins DiscoverX

kinome (kinase panel) [23] = target: T23, kinome (kinase panel) (Homo sapiens, UniProt P29376); assay: KINOMEscan assay (Eurofins DiscoverX); format: binding; details: LTK; 1000 nM; read-out: Percent Control
T23 construct: purchased Eurofins DiscoverX

kinome (kinase panel) [24] = target: T24, kinome (kinase panel) (Homo sapiens, UniProt Q9NRM7); assay: KINOMEscan assay (Eurofins DiscoverX); format: binding; details: LATS2; 1000 nM; read-out: Percent Control
T24 construct: purchased Eurofins DiscoverX

kinome (kinase panel) [25] = target: T25, kinome (kinase panel) (Homo sapiens, UniProt P42336, E545K); assay: KINOMEscan assay (Eurofins DiscoverX); format: binding; details: read-out: Percent Control
T25 construct: purchased Eurofins DiscoverX

kinome (kinase panel) [26] = target: T26, kinome (kinase panel) (Homo sapiens, UniProt P00533, L858R); assay: KINOMEscan assay (Eurofins DiscoverX); format: binding; details: […]; 1000 nM; read-out: Percent Control
T26 construct: purchased Eurofins DiscoverX
T26 sequence (P00533 25-1210 L858R): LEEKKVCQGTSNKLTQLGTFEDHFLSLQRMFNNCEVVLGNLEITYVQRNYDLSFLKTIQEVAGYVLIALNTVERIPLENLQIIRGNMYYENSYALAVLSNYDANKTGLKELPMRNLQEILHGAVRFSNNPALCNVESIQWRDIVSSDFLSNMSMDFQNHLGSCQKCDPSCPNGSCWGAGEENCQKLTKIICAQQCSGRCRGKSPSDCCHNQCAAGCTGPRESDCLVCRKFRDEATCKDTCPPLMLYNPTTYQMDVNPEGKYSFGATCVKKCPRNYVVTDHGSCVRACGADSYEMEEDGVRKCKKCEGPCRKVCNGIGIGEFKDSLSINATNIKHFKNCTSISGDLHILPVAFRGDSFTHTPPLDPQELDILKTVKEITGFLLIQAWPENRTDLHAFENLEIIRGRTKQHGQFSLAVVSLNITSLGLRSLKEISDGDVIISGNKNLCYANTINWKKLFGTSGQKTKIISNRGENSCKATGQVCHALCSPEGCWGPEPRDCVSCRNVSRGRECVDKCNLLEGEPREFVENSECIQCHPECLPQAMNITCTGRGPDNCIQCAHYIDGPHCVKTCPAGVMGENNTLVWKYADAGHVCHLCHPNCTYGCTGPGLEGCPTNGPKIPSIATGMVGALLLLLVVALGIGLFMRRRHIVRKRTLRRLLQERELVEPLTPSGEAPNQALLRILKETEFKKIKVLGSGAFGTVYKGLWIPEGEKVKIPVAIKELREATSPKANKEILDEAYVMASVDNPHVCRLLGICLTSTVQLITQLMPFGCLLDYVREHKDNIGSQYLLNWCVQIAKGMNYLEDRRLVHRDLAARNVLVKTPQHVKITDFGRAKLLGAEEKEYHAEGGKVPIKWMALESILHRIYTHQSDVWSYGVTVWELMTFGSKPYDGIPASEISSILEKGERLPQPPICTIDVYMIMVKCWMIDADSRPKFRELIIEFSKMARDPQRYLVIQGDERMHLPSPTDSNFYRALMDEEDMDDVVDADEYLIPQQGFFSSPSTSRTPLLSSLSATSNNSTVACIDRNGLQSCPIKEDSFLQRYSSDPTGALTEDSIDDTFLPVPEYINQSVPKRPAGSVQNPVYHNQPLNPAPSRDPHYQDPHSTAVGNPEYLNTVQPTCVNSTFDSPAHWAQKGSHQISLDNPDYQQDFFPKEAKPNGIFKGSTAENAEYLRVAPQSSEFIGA

T21 sequence (O43318 whole entry): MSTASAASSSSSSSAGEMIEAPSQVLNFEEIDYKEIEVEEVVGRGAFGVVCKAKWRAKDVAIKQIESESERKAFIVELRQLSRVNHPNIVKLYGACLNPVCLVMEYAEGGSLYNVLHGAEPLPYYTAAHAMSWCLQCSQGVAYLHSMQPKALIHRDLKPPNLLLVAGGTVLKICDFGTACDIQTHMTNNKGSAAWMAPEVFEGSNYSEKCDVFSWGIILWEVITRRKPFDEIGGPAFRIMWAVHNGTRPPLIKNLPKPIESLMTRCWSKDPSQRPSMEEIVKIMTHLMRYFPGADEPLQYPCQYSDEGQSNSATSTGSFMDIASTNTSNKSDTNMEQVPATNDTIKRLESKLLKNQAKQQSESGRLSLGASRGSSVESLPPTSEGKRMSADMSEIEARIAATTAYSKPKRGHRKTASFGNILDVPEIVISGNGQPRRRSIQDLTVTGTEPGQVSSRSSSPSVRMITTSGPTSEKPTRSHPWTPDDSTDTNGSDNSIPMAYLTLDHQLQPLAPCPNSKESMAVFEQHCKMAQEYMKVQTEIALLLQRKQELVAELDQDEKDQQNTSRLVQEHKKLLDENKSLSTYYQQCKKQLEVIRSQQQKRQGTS
CDK4, sequence (P11802 whole entry): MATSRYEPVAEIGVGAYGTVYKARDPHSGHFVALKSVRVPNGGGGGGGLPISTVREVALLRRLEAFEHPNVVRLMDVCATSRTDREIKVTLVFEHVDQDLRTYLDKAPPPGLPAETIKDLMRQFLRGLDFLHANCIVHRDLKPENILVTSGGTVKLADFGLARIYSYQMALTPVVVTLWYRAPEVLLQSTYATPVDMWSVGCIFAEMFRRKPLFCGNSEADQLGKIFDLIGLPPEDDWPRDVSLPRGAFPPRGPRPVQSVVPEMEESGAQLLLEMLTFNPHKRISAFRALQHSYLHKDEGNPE
CDK4, sequence (P24385 whole entry partner): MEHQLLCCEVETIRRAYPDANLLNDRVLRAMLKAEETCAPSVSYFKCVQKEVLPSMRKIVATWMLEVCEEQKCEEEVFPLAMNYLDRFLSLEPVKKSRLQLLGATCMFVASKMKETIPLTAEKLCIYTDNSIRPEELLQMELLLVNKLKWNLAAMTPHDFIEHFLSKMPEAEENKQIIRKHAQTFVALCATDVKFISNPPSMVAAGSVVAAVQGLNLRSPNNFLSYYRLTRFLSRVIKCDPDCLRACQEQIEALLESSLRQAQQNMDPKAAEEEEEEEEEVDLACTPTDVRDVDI
T7 sequence (Q13705 19-512): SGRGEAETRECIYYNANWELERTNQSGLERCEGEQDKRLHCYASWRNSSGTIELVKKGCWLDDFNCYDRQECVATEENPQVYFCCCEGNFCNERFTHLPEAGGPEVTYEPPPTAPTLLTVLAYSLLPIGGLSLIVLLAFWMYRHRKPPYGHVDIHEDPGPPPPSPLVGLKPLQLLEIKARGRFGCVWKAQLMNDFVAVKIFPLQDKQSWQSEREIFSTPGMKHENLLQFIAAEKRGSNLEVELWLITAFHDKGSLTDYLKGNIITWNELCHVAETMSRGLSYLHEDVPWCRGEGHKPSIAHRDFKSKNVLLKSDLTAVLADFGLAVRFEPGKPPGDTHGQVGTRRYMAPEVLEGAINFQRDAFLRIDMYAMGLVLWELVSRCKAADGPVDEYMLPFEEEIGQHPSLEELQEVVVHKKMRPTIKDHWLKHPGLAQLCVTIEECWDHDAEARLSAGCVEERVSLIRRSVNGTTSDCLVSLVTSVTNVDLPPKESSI
T6 sequence (P25098 whole entry): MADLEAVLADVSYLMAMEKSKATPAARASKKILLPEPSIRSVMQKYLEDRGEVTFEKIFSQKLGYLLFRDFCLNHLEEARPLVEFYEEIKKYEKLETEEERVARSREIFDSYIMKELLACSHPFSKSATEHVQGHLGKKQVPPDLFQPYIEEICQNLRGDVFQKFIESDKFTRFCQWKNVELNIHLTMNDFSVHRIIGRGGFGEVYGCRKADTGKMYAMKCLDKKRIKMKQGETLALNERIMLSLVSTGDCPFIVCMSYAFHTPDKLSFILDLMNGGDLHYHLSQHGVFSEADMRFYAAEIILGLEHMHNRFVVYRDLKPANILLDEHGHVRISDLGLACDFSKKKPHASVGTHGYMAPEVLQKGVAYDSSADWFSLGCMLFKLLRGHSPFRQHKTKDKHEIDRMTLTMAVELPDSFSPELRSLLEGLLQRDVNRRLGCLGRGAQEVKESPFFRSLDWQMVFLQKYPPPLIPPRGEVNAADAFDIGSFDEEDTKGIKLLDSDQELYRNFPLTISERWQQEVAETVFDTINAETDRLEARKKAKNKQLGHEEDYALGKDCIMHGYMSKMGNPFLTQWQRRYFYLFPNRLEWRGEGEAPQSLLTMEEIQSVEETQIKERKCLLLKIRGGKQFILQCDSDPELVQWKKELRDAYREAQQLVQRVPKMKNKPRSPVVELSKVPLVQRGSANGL
T9 sequence (Q7L7X3 whole entry): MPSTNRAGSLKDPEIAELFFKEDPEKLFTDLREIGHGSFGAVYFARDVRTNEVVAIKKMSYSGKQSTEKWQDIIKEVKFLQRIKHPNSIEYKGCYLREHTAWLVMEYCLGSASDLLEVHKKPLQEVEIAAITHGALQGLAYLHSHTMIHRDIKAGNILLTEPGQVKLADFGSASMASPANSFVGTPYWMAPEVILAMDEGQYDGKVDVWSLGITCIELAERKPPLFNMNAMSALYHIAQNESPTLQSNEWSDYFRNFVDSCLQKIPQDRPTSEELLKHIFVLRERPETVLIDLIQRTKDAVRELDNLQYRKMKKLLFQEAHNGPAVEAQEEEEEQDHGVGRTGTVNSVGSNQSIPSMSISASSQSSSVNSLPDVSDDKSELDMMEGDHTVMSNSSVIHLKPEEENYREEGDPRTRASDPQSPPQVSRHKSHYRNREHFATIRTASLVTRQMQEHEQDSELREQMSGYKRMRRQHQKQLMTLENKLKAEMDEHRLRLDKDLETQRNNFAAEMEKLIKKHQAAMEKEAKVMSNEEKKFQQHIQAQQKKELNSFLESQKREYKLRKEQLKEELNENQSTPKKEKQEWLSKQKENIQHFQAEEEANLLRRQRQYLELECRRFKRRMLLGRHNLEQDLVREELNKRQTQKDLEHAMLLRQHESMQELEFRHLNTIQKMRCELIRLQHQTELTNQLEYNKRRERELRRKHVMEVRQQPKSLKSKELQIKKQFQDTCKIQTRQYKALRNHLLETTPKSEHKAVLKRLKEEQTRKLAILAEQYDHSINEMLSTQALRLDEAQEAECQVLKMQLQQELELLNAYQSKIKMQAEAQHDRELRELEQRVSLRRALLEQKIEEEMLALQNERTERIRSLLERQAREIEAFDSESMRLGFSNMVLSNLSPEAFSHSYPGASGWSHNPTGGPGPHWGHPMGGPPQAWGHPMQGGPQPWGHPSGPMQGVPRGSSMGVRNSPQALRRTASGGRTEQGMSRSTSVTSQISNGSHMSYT
T1 sequence (P25440 344-453 limits assumed): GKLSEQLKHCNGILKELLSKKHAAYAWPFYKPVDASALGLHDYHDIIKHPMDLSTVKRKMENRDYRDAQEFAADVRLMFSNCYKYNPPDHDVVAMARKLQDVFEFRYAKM

For CN(C)C(=O)c1cc2cnc(Nc3ccc(-c4csc5c(=O)cc(N6CCOCC6)oc45)cc3)nc2n1C1CCCC1 [SRX3177], the pIC50 (BRD2 (BD2)) was 6.00, the pIC50 (CDK4) was greater than 8.60 and the pIC50 [1] was 6.19. For the same compound, the remaining binding at 1 µM (kinome (kinase panel) [2]) was 46%, the “Percent Control” value (kinome (kinase panel) [3]) was 52 and the remaining binding at 1 µM (kinome (kinase panel) [3]; read-out: Percent Control) was 57%. It also gave a remaining binding at 1 µM (kinome (kinase panel) [4]) of 10%, a remaining binding at 1 µM (kinome (kinase panel) [5]) of 88% and a remaining binding at 1 µM (kinome (kinase panel) [6]) of 73%. It also gave a remaining binding at 1 µM (kinome (kinase panel) [7]) of 87%, a remaining binding at 1 µM (kinome (kinase panel) [8]) of 100% and a remaining binding at 1 µM (kinome (kinase panel) [9]) of 14%. The remaining binding at 1 µM (kinome (kinase panel) [10]) was 86%, the remaining binding at 1 µM (kinome (kinase panel) [11]) was 97% and the remaining binding at 1 µM (kinome (kinase panel) [12]) was 4.9%. For the same compound, the remaining binding at 1 µM (kinome (kinase panel) [13]) was 1.6%, the remaining binding at 1 µM (kinome (kinase panel) [14]) was 100% and the remaining binding at 1 µM (kinome (kinase panel) [15]) was 100%. The remaining binding at 1 µM (kinome (kinase panel) [16]) was 66%, the remaining binding at 1 µM (kinome (kinase panel) [17]) was 84% and the remaining binding at 1 µM (kinome (kinase panel) [18]) was 85%. It also gave a remaining binding at 1 µM (kinome (kinase panel) [19]) of 86%, a remaining binding at 1 µM (kinome (kinase panel) [20]) of 49% and a remaining binding at 1 µM (kinome (kinase panel) [21]) of 94%. The “Percent Control” value (kinome (kinase panel) [22]) was 89 and 56, the remaining binding at 1 µM (kinome (kinase panel) [23]) was 98% and the remaining binding at 1 µM (kinome (kinase panel) [24]) was 42%. It also gave a remaining binding at 1 µM (kinome (kinase panel) [25]) of 45% and a remaining binding at 1 µM (kinome (kinase panel) [26]) of 100%.
